US12612410B2 (CHILDREN'S HOSPITAL MEDICAL CENTER, priority 2020, dated 2026)

How the values were obtained:
IRAK1 = target: T1, IRAK1 (Homo sapiens, UniProt P51617); test: RBC HotSpot Kinase Assay, IRAK1; format: biochemical; settings: isolated kinase, 33P-ATP
T1 construct: purchased Reaction Biology (RBC), HotSpot kinase assay
How it was run: (§1)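 Kinase domain constructs, possibly truncated, were assayed radiometrically with 33P-ATP and substrate after 20 min compound preincubation, reacting 2 h at room temp.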

NF-κB [1] = test: NF-kB SEAP reporter assay in THP-1-Blue NF-κB cells, Pam3CSK4 stimulation; format: cell-based; settings: Pam3CSK4 1 ng/mL, read-out: NF-κB Pam3SCK4 IC50
Description: (§2) THP-1-Blue NF-xB cells (InvivoGen) carrying a stable integrated NF-κB-inducible secreted embryonic alkaline phosphatase (SEAP) reporter construct were plated at a concentration of 1×10^5 cells per well. The cells were stimulated with Pam3CSK4 (1 ng/mL) or hIL1B (1 ng/mL). After 10-20 minutes, the cells were then treated with vehicle (DMSO) or serial dilutions of the test compounds (10 doses tested for each test compound, with a 1:10 dilution series starting at 1 μM or 3 μM) with a final volume of 200 μL for 24 hours at 37° C. After 24 hours, the cells were centrifuged and 20 μL supernatant was incubated with 180 μL QUANTI-Blue reagent at 37° C. for 30-60 minutes. The levels of NF-κB-induced was measured in a microplate reader at 620 nm.

NF-κB [2] = test: NF-kB SEAP reporter assay in THP-1-Blue NF-κB cells, hIL1B stimulation; format: cell-based; settings: hIL1B 1 ng/mL, read-out: NF-κB IL1B IC50
Description: as §2

IRAK4 = target: T2, IRAK4 (Homo sapiens, UniProt Q9NWZ3); test: RBC HotSpot Kinase Assay, IRAK4; format: biochemical; design: purchased Reaction Biology (RBC), HotSpot kinase assay; settings: isolated kinase, 33P-ATP
T2 sequence (Q9NWZ3 1-460): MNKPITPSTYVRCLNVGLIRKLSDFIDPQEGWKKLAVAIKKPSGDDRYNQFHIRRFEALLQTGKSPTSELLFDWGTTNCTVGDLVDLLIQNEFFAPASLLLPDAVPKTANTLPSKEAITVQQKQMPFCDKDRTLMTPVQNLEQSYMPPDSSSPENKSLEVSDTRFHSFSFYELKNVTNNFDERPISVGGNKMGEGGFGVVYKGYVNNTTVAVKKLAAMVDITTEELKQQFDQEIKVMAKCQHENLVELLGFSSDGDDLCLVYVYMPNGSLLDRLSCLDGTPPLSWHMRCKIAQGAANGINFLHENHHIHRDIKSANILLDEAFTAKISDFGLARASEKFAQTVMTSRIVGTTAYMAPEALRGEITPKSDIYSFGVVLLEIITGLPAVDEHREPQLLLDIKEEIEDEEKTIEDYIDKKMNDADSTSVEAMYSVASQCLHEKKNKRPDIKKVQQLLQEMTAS
How it was run: as §1

FLT3 = target: T3, FLT3 (Homo sapiens, UniProt P36888); test: RBC HotSpot Kinase Assay, FLT3; format: biochemical; design: purchased Reaction Biology (RBC), HotSpot kinase assay; settings: isolated kinase, 33P-ATP
T3 sequence (P36888 27-993): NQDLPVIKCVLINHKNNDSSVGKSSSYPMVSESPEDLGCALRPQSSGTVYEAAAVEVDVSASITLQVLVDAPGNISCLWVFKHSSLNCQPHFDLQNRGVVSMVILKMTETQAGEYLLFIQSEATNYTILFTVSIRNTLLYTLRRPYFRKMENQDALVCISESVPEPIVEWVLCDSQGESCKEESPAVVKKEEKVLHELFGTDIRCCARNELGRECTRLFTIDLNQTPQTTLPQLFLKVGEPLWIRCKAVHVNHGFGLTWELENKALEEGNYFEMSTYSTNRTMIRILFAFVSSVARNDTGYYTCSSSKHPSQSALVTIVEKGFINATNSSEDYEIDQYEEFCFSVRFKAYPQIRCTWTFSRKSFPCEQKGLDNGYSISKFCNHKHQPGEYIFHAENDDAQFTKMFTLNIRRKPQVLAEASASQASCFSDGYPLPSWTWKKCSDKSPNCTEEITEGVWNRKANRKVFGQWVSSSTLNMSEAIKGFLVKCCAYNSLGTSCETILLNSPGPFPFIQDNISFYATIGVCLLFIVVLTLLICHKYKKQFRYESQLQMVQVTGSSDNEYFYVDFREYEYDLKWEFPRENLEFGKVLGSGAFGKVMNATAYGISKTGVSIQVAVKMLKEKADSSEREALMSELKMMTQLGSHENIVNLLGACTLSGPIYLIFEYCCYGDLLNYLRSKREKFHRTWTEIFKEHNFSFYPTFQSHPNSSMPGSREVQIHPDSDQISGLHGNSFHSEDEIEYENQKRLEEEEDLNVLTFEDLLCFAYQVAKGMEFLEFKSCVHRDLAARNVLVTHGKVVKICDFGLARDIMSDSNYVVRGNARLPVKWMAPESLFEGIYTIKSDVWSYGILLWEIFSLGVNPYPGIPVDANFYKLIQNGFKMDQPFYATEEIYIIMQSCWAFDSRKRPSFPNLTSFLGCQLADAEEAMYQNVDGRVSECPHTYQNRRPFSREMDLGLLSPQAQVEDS
How it was run: as §1

MOLM14 D835Y cells = test: MOLM14 D835Y cell viability assay (Cell Titer Glo); format: cell-based; settings: Homo sapiens, MOLM-14, 48 h
How it was run: (§3)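 MOLM14 cells carrying FLT3 D835Y or F691L were seeded at 1000 cells/well in RPMI-1640 with 20% FBS and dosed at 22 concentrations, 1:2 dilutions from 10 μM. Viability after 48 h by Cell Titer Glo luminescence; 2.3 μM bortezomib as cytotoxic control.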

MOLM14 F691L cells = test: MOLM14 F691L cell viability assay (Cell Titer Glo); format: cell-based; settings: Homo sapiens, MOLM-14, 48 h
How it was run: as §3

T1 sequence (P51617 whole entry): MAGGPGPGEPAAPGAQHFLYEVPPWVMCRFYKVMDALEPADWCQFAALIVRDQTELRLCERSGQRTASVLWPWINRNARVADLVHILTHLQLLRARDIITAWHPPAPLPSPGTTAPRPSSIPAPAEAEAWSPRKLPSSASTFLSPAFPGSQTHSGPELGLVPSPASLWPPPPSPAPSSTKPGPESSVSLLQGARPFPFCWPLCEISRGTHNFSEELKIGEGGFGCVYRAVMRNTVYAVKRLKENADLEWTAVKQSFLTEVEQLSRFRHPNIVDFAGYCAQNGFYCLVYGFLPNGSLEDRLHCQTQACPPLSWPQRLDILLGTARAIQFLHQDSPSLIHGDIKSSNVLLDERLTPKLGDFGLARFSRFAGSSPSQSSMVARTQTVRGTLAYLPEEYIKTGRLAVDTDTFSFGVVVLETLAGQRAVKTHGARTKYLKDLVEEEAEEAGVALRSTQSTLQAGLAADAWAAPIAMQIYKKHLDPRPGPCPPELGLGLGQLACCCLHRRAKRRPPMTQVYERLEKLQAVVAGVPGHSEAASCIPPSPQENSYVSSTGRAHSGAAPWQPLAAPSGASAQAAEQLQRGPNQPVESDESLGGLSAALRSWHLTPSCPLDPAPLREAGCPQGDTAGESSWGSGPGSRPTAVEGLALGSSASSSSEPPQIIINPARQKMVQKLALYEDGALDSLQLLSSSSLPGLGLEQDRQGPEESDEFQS

`F[C@H]1CNC[C@@H]1Nc1cccc(-c2cnc3cnc(OCC(F)(F)F)cn23)n1` [Compound 36, N-((3S,4S)-4-fluoropyrrolidin-3-yl)-6-(6-(2,2,2-trifluoroethoxy)imidazo[1,2-a]pyrazin-3-yl)pyridin-2-amine] showed an IC50 (IRAK1) of 190 nM, an IC50 (NF-κB [1]; 24 h) of 17 nM and an IC50 (NF-κB [2]; 24 h) of 40 nM. The IC50 (IRAK4) was 1 nM and the IC50 (FLT3) was < 0.5 nM.
`F[C@H]1CNC[C@@H]1Nc1cccc(-c2cnc3cnc(OCC4CC4)cn23)n1` [compound 60, 6-(6-(cyclopropylmethoxy)imidazo[1,2-a]pyrazin-3-yl)-N-((3S,4S)-4-fluoropyrrolidin-3-yl)pyridin-2-amine] was tested, and the IC50 (IRAK1) was 833 nM, the IC50 (NF-κB [1]; 24 h) was 34 nM and the IC50 (NF-κB [2]; 24 h) was 356 nM. The IC50 (IRAK4) was 2 nM and the IC50 (FLT3) was < 0.5 nM.
`CC(C)Oc1cn2c(-c3cccc(N[C@H]4CNC[C@@H]4F)n3)cnc2cn1` [Compound 59, N-((3S,4S)-4-fluoropyrrolidin-3-yl)-6-(6-isopropoxyimidazo[1,2-a]pyrazin-3-yl)pyridin-2-amine] gave an IC50 (IRAK1) of 696 nM, an IC50 (NF-κB [1]; 24 h) of 24 nM and an IC50 (NF-κB [2]; 24 h) of 144 nM. The IC50 (IRAK4) was < 0.5 nM and the IC50 (FLT3) was < 0.5 nM.
Work on `O=S1(=O)CCCN1c1cn2c(-c3cccc(N[C@@H]4CCCNC4)n3)cnc2cn1` [Compound 96, (R)-2-(3-(6-(piperidin-3-ylamino)pyridin-2-yl)imidazo[1,2-a]pyrazin-6-yl)isothiazolidine 1,1-dioxide] yielded an IC50 (IRAK1) of 49 nM, an IC50 (NF-κB [1]; 24 hours) of 20 nM and an IC50 (NF-κB [2]; 24 hours) of 263 nM. The IC50 (MOLM14 D835Y cells) was 7 nM, the IC50 (MOLM14 F691L cells) was 39 nM and the IC50 (IRAK4) was 2 nM. The IC50 (FLT3) was 0.9 nM.
